Results: ChEMBL document CHEMBL4765332, “A multi-scale systems pharmacology approach uncovers the anti-cancer molecular mechanism of Ixabepilone” (Eur J Med Chem, 2020)
Active and inactive are the calls of the source. No cut-off for these calls is given here.

Assays:
[1] = target: T1, Apoptosis regulator Bcl-2 (Homo sapiens, UniProt P10415); assay: Binding affinity to human recombinant Bcl-2 expressed in Escherichia coli by Surface plasmon resonance assay
[2] = target: T1, Apoptosis regulator Bcl-2; assay: Induction of Bcl-2 phosphorylation-mediated protein degradation in human MDA-MB-231 cells assessed as decrease in Bcl-2 expression measured after 48 hrs by western blot analysis; type: cell-based; conditions: dose 0.05-0.4 µM
[3] = target: T1, Apoptosis regulator Bcl-2; assay: Induction of Bcl-2 phosphorylation-mediated protein degradation in human BT549 cells assessed as decrease in Bcl-2 expression measured after 48 hrs by western blot analysis; type: cell-based; conditions: BT-549, dose 0.05-0.4 µM
[4] = target: T1, Apoptosis regulator Bcl-2; assay: Induction of Bcl-2 phosphorylation-mediated protein degradation in human MCF7 cells assessed as decrease in Bcl-2 expression measured after 48 hrs by western blot analysis; type: cell-based; conditions: dose 0.05-0.4 µM
[5] = target: T1, Apoptosis regulator Bcl-2; assay: Induction of Bcl-2 phosphorylation-mediated protein degradation in human MDA-MB-231 cells assessed as decrease in Bcl-2 expression at 0.1 uM by western blot analysis; type: cell-based; conditions: time 12-48 hrs, TDE = time-dependent effect
[6] = target: T1, Apoptosis regulator Bcl-2; assay: Induction of Bcl-2 phosphorylation-mediated protein degradation in human BT549 cells assessed as decrease in Bcl-2 expression at 0.1 uM by western blot analysis; type: cell-based; conditions: BT-549, time 12-48 hrs, TDE = time-dependent effect
[7] = target: T1, Apoptosis regulator Bcl-2; assay: Induction of Bcl-2 phosphorylation-mediated protein degradation in human MDA-MB-231 cells assessed as disruption of Bcl2/Beclin1 interaction at 0.2 uM measured after 48 hrs by co-immunoprecipitation analysis; type: cell-based
MDA-MB-231 [8] = assay: Induction of autophagy in human MDA-MB-231 cells assessed as increase in LC3-II level measured after 48 hrs by Western blot analysis; type: functional, cell-based; conditions: dose 0.05-0.4 µM
MDA-MB-231 [9] = assay: Induction of autophagy in human MDA-MB-231 cells assessed as increase in LC3-II level at 0.1 uM by Western blot analysis; type: functional, cell-based; conditions: time 12-48 hrs, TDE = time-dependent effect
MCF7 [10] = assay: Induction of autophagy in human MCF7 cells assessed as increase in LC3-II level at 0.1 uM by Western blot analysis; type: functional, cell-based; conditions: time 12-48 hrs, TDE = time-dependent effect
BT-549 [11] = assay: Induction of autophagy in human BT-549 cells transfected with GFP-LC3 assessed as increase in GFP-LC3 puncta formation after 12 hrs by fluorescence microscopic analysis; type: functional, cell-based
MDA-MB-231 [12] = assay: Induction of autophagy in human MDA-MB-231 cells assessed increase in LC3-II level at 0.1 to 0.2 uM preincubated with 20 uM autophagosome-lysosome fusion inhibitor, chloroquine for 1 hr followed by incubation with compound for 48 hrs by western blot analysis; type: functional, cell-based; conditions: dose 0.1-0.2 µM
BT-549 [13] = assay: Induction of autophagy in human BT-549 cells expressing mRFP-EGFP-LC3B assessed as accumulation of yellow fluorescence signals measured after 12 hrs by fluorescence microscopic analysis; type: functional, cell-based
MDA-MB-231 [14] = assay: Cytotoxicity against human MDA-MB-231 cells at 0.1 to 1.6 uM measured after 48 hrs in presence of 20 uM autophagy inhibitor, chloroquine by CCK8 assay; type: functional, cell-based; conditions: dose 0.1-1.6 µM
MCF7 [15] = assay: Cytotoxicity against human MCF-7 cells at 0.1 to 1.6 uM measured after 48 hrs in presence of 20 uM autophagy inhibitor, chloroquine by CCK8 assay; type: functional, cell-based; conditions: dose 0.1-1.6 µM
BT-549 [16] = assay: Cytotoxicity against human BT-549 cells at 0.1 to 1.6 uM measured after 48 hrs in presence of 2 mM autophagy inhibitor, 3-methyladenine by CCK8 assay; type: functional, cell-based; conditions: dose 0.1-1.6 µM
MDA-MB-231 [17] = assay: Induction of autophagy in human MDA-MB-231 cells transfected with Beclin1 siRNA assessed as LC3-II level at 0.1 uM by western blot analysis; type: functional, cell-based
MDA-MB-231 [18] = assay: Induction of apoptosis in human MDA-MB-231 cells assessed as increase in cleaved caspase 3 level pretreated with 20 uM autophagy inhibitor, CQ for 1 hr followed by incubation with drug for 48 hrs by western blot analysis; type: functional, cell-based
BT-549 [19] = assay: Induction of apoptosis in human BT-549 cells assessed as increase in cleaved caspase 3 level pretreated with 20 uM autophagy inhibitor, CQ for 1 hr followed by incubation with drug for 48 hrs by western blot analysis; type: functional, cell-based
BT-549 [20] = assay: Induction of apoptosis in human BT-549 cells transfected with Beclin1 siRNA assessed as increase in cleaved caspase-3 level measured after 48 hrs by western blot analysis; type: functional, cell-based
BT-549 [21] = assay: Induction of apoptosis in human BT-549 cells transfected with Beclin1 siRNA assessed as increase in cleaved PARP level measured after 48 hrs by western blot analysis; type: functional, cell-based
BT-549 [22] = assay: Induction of apoptosis in human BT-549 cells assessed as necrotic cells incubated for 48 hrs by AnnexinV-FITC and propidium iodide staining based flow cytometry analysis(reference value: 0.145%); type: functional
[23] = target: T1, Apoptosis regulator Bcl-2; assay: Induction of Bcl-2 phosphorylation-mediated protein degradation in human U251 cells assessed as decrease in Bcl-2 expression at 0.4 to 6.4 uM measured after 48 hrs by western blot analysis; type: cell-based; conditions: U-251, dose 0.4-6.4 µM
[24] = target: T1, Apoptosis regulator Bcl-2; assay: Induction of Bcl-2 phosphorylation-mediated protein degradation in human U251 cells assessed as decrease in Bcl-2 expression at 0.4 uM measured after 12 to 48 hrs by western blot analysis; type: cell-based; conditions: U-251, time 12-48 hrs
MDA-MB-231 [25] = assay: Antitumor activity against human MDA-MB-231 cells xenografted in BALB/c mouse assessed as tumor growth inhibition at 3 mg/kg, ip administered every other day measured every 3 days by vernier caliper analysis; type: functional, organism-based
[26] = target: T1, Apoptosis regulator Bcl-2; assay: Induction of Bcl-2 phosphorylation-mediated protein degradation in human MDA-MB-231 cells assessed as decrease in Bcl-2 expression at 0.1 to 0.2 uM pretreated with proteasome inhibitor, MG132 for 2 hrs followed by incubation with compound for 48 hrs by western blot analysis; type: cell-based; conditions: dose 0.1-0.2 µM
[27] = target: T1, Apoptosis regulator Bcl-2; assay: Upregulation of Bcl-2 phosphorylation at Ser70 residue in human MDA-MB-231 cells at 0.05 to 0.4 microM incubated for 48 hrs by western blot analysis; type: cell-based; conditions: dose 0.05-0.4 µM
[28] = target: T1, Apoptosis regulator Bcl-2; assay: Upregulation of Bcl-2 phosphorylation at Ser70 residue in human BT549 cells at 0.05 to 0.4 microM incubated for 48 hrs by western blot analysis; type: cell-based; conditions: BT-549, dose 0.05-0.4 µM
[29] = target: T1, Apoptosis regulator Bcl-2; assay: Upregulation of Bcl-2 phosphorylation at Ser70 residue in human MDA-MB-231 cells at 0.1 microM incubated for 12 to 36 hrs by western blot analysis; type: cell-based; conditions: time 12-36 hrs
[30] = target: T1, Apoptosis regulator Bcl-2; assay: Upregulation of Bcl-2 phosphorylation at Ser70 residue in human BT549 cells at 0.1 microM incubated for 12 to 36 hrs by western blot analysis; type: cell-based; conditions: BT-549, time 12-36 hrs
[31] = target: T1, Apoptosis regulator Bcl-2; assay: Upregulation of Bcl-2 phosphorylation at Ser70 residue in human MCF7 cells at 0.1 microM incubated for 12 to 36 hrs by western blot analysis; type: cell-based; conditions: time 12-36 hrs
MDA-MB-231 [32] = assay: Effect on Beclin1 expression in human MDA-MB-231 cells at 0.2 uM measured after 48 hrs by western blot analysis; type: functional, cell-based
HepG2 = assay: Induction of autophagy in human HepG2 cells assessed as increase in LC3-II expression at 0.4 uM measured after 12 to 48 hrs by western blot analysis; type: functional, cell-based; conditions: time 12-48 hrs

T1 sequence (P10415 whole entry): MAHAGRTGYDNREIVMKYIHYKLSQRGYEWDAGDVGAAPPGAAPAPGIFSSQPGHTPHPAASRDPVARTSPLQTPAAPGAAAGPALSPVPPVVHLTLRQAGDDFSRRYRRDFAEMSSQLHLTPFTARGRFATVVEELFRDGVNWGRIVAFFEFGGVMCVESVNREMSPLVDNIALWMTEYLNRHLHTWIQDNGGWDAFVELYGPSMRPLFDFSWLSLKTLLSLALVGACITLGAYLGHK

C/C(=C\c1csc(C)n1)[C@@H]1C[C@@H]2O[C@]2(C)CCC[C@H](C)[C@H](O)[C@@H](C)C(=O)C(C)(C)[C@@H](O)CC(=O)N1 [IXABEPILONE]
Kd [1]: 337 nM | Activity [2]: Dose-dependent effect | Activity [3]: Dose-dependent effect | Activity [4]: Dose-dependent effect | Activity [5]: Tde | Activity [6]: Tde | Activity [7]: Active | Activity (MDA-MB-231 [8]): Dose-dependent effect | Activity (MDA-MB-231 [9]): Tde | Activity (MCF7 [10]): Tde | Activity (BT-549 [11]): Active | Activity (MDA-MB-231 [12]): Active | Activity (BT-549 [13]): Active | Activity (MDA-MB-231 [14]): Active | Activity (MCF7 [15]): Active | Activity (BT-549 [16]): Active | Activity (MDA-MB-231 [17]): inactive | Activity (MDA-MB-231 [18]): Active | Activity (BT-549 [19]): Active | Activity (BT-549 [20]): Active | Activity (BT-549 [21]): Active | Activity (BT-549 [22]): 1.47% | Activity [23]: Active | Activity [24]: Active | Activity (MDA-MB-231 [25]): Active | Activity [26]: inactive | Activity [27]: Active | Activity [28]: Active | Activity [29]: Active | Activity [30]: Active | Activity [31]: Active | Activity (MDA-MB-231 [32]): inactive | Activity (HepG2): Active
